Assay results as given in patent publication US10610526B2 (priority 2015, dated 2020).

What was measured:
α3β4α5 nAChRs [1] = target: T1, α3β4α5 nAChRs (Homo sapiens, UniProt P30926+P32297); assay: cell-based; settings: read-out: Agonist Effect Emax
α3β4α5 nAChRs [2] = target: T1, α3β4α5 nAChRs
α6/3β2β3 nAChRs [3] = target: T2, α6/3β2β3 nAChRs (Homo sapiens, UniProt Q15825); assay: cell-based; settings: read-out: Agonist Effect Emax
α6/3β2β3 nAChRs [4] = target: T2, α6/3β2β3 nAChRs
α7 nAChRs = α7 nAChRs (Homo sapiens, UniProt P36544); type: cell-based
α4β2 nAChRs = α4β2 nAChRs (Homo sapiens, UniProt P17787+P43681); assay: cell-based; type: cell-based
[5] = rat, in vivo; cited from earlier work

T2 sequence (Q15825 26-239 limits assumed): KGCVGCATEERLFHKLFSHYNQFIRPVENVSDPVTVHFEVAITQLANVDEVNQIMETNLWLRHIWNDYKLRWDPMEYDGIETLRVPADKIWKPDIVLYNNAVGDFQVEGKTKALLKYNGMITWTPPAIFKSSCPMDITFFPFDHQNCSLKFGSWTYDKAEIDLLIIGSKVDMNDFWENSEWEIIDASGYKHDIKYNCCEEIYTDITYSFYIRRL
T2 sequence (P17787 26-238 limits assumed, further chain): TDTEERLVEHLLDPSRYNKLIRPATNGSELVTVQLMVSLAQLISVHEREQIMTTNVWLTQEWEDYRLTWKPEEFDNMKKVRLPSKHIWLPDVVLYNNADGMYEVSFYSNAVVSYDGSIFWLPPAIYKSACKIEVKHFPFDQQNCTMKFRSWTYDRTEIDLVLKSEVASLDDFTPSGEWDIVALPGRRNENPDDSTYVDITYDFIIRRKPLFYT
T2 sequence (Q05901 22-237 limits assumed, further chain): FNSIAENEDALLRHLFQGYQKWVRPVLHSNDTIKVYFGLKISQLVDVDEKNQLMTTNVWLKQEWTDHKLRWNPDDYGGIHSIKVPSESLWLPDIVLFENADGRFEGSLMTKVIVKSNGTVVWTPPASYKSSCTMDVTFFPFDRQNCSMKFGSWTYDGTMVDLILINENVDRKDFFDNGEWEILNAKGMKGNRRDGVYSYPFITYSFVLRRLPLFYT
α7 nAChRs, sequence (P36544 23-502): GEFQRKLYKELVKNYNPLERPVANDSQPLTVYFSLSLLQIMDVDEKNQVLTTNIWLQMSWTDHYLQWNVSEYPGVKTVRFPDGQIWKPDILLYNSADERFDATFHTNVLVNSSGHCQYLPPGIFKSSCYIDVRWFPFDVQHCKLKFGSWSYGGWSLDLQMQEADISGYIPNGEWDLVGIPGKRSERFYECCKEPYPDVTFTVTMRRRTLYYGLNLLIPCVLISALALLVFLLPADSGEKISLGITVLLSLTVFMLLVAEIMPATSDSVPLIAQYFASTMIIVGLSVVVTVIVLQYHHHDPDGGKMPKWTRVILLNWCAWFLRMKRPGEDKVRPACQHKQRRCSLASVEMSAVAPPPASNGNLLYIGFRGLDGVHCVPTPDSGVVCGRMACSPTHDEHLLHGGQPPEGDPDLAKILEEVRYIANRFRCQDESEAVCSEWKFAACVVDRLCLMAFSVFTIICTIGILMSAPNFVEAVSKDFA
T1 sequence (P32297 32-505): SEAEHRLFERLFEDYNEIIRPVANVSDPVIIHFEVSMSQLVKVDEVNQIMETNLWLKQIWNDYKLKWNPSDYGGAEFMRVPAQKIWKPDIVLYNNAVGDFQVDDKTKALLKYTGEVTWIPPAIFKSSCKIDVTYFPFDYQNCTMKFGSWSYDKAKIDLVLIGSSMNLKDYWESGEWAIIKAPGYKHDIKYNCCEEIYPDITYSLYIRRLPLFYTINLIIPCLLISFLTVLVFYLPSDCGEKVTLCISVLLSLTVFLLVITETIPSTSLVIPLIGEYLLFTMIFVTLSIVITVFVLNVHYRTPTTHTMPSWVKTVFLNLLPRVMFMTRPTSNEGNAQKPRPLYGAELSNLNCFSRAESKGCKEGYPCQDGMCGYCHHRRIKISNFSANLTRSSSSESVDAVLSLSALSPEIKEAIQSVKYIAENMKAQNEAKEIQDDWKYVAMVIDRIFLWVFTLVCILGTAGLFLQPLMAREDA
T1 sequence (P30926 22-498): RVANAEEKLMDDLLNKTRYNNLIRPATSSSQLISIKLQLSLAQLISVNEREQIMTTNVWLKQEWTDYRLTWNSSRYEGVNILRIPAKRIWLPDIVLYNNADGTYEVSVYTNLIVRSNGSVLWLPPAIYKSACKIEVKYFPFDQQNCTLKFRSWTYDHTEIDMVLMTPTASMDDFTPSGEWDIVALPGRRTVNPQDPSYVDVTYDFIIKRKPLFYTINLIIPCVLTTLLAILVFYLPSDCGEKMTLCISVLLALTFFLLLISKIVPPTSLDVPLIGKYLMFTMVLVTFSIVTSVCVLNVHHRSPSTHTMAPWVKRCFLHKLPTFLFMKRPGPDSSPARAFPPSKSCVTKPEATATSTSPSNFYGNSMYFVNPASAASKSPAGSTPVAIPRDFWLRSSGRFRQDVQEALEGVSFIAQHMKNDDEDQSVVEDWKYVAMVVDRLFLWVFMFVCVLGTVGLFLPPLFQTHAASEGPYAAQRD
T1 sequence (P30532 23-468 partner): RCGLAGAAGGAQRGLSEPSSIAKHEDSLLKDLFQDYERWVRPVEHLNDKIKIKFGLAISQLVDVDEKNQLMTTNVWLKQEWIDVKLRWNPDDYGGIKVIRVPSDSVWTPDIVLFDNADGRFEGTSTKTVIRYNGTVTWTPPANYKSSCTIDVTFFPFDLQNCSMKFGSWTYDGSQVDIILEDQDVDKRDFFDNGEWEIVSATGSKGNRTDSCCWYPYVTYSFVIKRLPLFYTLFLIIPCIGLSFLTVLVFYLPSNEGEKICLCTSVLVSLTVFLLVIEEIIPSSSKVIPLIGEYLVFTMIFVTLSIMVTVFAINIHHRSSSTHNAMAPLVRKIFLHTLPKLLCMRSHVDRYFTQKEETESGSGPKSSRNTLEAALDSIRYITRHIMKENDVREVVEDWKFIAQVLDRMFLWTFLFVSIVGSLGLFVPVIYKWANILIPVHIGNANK
α4β2 nAChRs, sequence (P43681 29-627 limits assumed): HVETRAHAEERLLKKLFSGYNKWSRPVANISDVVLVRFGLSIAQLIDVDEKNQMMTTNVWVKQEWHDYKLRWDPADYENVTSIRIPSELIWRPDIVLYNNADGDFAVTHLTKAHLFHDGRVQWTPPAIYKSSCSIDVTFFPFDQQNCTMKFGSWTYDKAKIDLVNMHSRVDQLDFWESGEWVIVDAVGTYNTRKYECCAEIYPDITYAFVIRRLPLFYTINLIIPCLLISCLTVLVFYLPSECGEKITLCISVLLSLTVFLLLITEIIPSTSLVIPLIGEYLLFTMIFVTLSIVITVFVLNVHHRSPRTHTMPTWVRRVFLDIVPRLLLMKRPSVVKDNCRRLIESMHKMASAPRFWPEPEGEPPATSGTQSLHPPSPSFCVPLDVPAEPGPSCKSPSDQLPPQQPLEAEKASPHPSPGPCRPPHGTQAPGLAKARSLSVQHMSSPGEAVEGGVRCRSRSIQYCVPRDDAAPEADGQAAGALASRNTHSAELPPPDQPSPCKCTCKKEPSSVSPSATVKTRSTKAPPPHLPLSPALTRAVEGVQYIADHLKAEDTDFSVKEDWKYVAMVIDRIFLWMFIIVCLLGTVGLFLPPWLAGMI
α4β2 nAChRs, sequence (P17787 26-502): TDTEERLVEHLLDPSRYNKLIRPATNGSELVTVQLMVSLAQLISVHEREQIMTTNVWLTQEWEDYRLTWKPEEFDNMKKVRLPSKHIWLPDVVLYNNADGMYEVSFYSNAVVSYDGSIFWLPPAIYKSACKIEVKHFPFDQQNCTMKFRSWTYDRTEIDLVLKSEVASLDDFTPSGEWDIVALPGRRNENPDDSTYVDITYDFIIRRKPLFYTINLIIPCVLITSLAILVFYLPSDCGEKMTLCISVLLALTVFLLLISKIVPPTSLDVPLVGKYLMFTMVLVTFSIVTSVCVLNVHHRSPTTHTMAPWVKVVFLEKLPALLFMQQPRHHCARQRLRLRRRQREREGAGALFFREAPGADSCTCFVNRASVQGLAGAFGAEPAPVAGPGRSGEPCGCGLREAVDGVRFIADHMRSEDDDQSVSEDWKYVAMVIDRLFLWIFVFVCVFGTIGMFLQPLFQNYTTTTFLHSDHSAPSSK

SMILES | Emax (α3β4α5 nAChRs [1]) [%] | Agonist Effect Hillslope (α3β4α5 nAChRs [2]) | Antagonist Effect Hillslope (α3β4α5 nAChRs [2]) | Emax (α6/3β2β3 nAChRs [3]) [%] | Agonist Effect Hillslope (α6/3β2β3 nAChRs [4]) | Antagonist Effect Hillslope (α6/3β2β3 nAChRs [4]) | Agonist Effect Emax (α3β4α5 nAChRs [2]) [%] | Agonist Effect Hillslope (α7 nAChRs) | Antagonist Effect Hillslope (α7 nAChRs) | Agonist Effect Hillslope (α4β2 nAChRs) | Antagonist Effect Hillslope (α4β2 nAChRs) | Agonist Effect Emax (α6/3β2β3 nAChRs [4]) [%] | agonist character at human α3β4α5 nAChRs (α3β4α5 nAChRs [2]) | agonist character at human α7 nAChRs (α7 nAChRs) | agonist character at human α4β2 nAChRs (α4β2 nAChRs) | Emax (α4β2 nAChRs; read-out: Agonist Effect Emax) [%] | agonist character at human α6/3β2β3 nAChRs (α6/3β2β3 nAChRs [4]) | carcinogenicity [5]
CN1CCCC1c1cccnc1 (racemic) [Synthetic RS racemic nicotine, RS-Nicotine] | 65 | −2.13 | 1.52 | 91 | −0.67 | 1.36 | – | – | – | – | – | – | – | – | – | – | – | –
CN1CCC[C@H]1c1cccnc1 [Alchem S nicotine, S nicotine] | – | −1.46 | 1.34 | – | −0.81 | 0.97 | 87 | −3.15 | 3.06 | −0.81 | 1.01 | 95 | – | – | – | – | – | –
CN1CCCC1c1cccnc1 (stereo not drawn) [Ref. nicotine (Sigma-Aldrich), nicotine] | 100 | −1.48 | 1.59 | 100 | −0.74 | 0.72 | – | −2.23 | – | −0.80 | 0.85 | – | – | – | – | – | – | –
CN1CCC[C@H]1c1cccnc1 [Sigma-Aldrich S nicotine, S nicotine] | – | −1.91 | 1.38 | – | −0.69 | 0.96 | 84 | −2.49 | 2.76 | −0.84 | 0.94 | 100 | – | – | – | – | – | –
CN1CCC[C@@H]1c1cccnc1 [Synthetic R nicotine, R nicotine] | 21 | −2.37 | 0.95 | 70 | −0.92 | 1.07 | – | −2.37 | 2.55 | −0.87 | 0.67 | – | partial, weak agonist | full, weak agonist | partial agonist | 28 | full, weak agonist | –
CN1CCC[C@H]1c1cccnc1 [Synthetic S nicotine, S nicotine] | 96 | −1.48 | 1.11 | 97 | −0.70 | 1.10 | – | – | – | – | – | – | – | – | – | – | – | –
CN1CCCC1c1cccnc1 (stereo not drawn) [synthetic nicotine, nicotine] | – | – | – | – | – | – | – | – | – | – | – | – | – | – | – | – | – | not carcinogenic
